Experimental data published in patent US9796686B2, “Antibacterial quinazoline-4(3H)-one derivatives” (priority 2014, dated 2017).
Converted amounts (≈) assume the structure as drawn.

Columns and labels:
Experiment in all cases: Bacterial growth minimal inhibitory concentration, microdilution in cation-adjusted Mueller-Hinton Broth (CLSI M7-A7)
Type in all cases: cell-based
E. coli ATCC25922 = conditions: quinolone-sensitive strain; for MIC: Escherichia coli, ATCC25922, read-out: MIC for E. coli ATCC25922
Protocol: (§1) Minimal Inhibitory Concentrations (MICs; mg/L) were determined in cation-adjusted Mueller-Hinton Broth by a microdilution method following the description given in “Methods for Dilution Antimicrobial Susceptibility Tests for Bacteria that Grow Aerobically”, Approved standard, 7th ed., Clinical and Laboratory Standards Institute (CLSI) Document M7-A7, Wayne, Pa., U.S.A. (2006).
(§2) All Example compounds were tested against several Gram-positive and Gram-negative bacteria. […] K. pneumoniae A-651 is a multiply-resistant strain (in particular quinolone-resistant), while E. coli ATCC25922 and P. aeruginosa ATCC27853 are quinolone-sensitive strains.

K. pneumoniae A-651 = conditions: multiply-resistant strain (in particular quinolone-resistant); for MIC: Klebsiella pneumoniae, A651, read-out: MIC for K. Pneumoniae A-651
Protocol: as §1, §2

P. aeruginosa ATCC27853 = conditions: quinolone-sensitive strain; for MIC: Pseudomonas aeruginosa, ATCC27853, read-out: MIC for P. aeruginosa ATCC27853
Protocol: as §1, §2

SMILES | MIC (E. coli ATCC25922) | MIC (K. pneumoniae A-651) | MIC (P. aeruginosa ATCC27853) | MIC for E. coli ATCC25922 (E. coli ATCC25922) | MIC for K. Pneumoniae A-651 (K. pneumoniae A-651) | MIC for P. aeruginosa ATCC27853 (P. aeruginosa ATCC27853)
C[C@@](CCn1cnc2cc(C#Cc3ccc(CCO)cc3)ccc2c1=O)(C(=O)NO)S(C)(=O)=O [Example 8, (R)-N-hydroxy-4-(7-((4-(2-hydroxyethyl)phenyl)ethynyl)-4-oxoquinazolin-3(4H)-yl)-2-methyl-2-(methylsulfonyl)butanamide] | 0.125 µg/mL (≈ 0.259 µM) | 0.25 µg/mL (≈ 0.517 µM) | 4 µg/mL (≈ 8.27 µM) |  |  | 
C[C@@](CCn1cnc2cc(C#Cc3ccc(OCCO)cc3)ccc2c1=O)(C(=O)NO)S(C)(=O)=O [Example 14, (R)-N-hydroxy-4-(7-((4-(2-hydroxyethoxy)phenyl)ethynyl)-4-oxoquinazolin-3(4H)-yl)-2-methyl-2-(methylsulfonyl)butanamide] | 0.25 µg/mL (≈ 0.5 µM) | 0.5 µg/mL (≈ 1 µM) | 16 µg/mL (≈ 32 µM) |  |  | 
C[C@@](CCn1cnc2cc(-c3ccccc3)ccc2c1=O)(C(=O)NO)S(C)(=O)=O (single isomer, unassigned) [Example 2] | 0.25 µg/mL (≈ 0.602 µM) | ≤ 0.063 µg/mL | 8 µg/mL (≈ 19.3 µM) |  |  | 
CC(CCn1cnc2cc(C#Cc3ccc(CN4CCOCC4)cc3)ccc2c1=O)(C(=O)NO)S(C)(=O)=O.O=CO (racemic) [RE12, (RS)-N-hydroxy-2-methyl-2-(methylsulfonyl)-4-(7-((4-(morpholinomethyl)phenyl)ethynyl)-4-oxoquinazolin-3(4H)-yl)butanamide formate] | 0.5 µg/mL | 0.5 µg/mL | 16 µg/mL |  |  | 
C[C@@](CCn1cnc2cc(C#CC#C[C@@H]3C[C@H]3[C@H](O)CO)ccc2c1=O)(C(=O)NO)S(C)(=O)=O [Example 26, (R)-4-(7-(((1R,2R)-2-((S)-1,2-dihydroxyethyl)cyclopropyl)buta-1,3-diyn-1-yl)-4-oxoquinazolin-3(4H)-yl)-N-hydroxy-2-methyl-2-(methylsulfonyl)butanamide] | 1 µg/mL (≈ 2.05 µM) | 1 µg/mL (≈ 2.05 µM) | 1 µg/mL (≈ 2.05 µM) |  |  | 
C[C@@](CCn1cnc2cc(C#Cc3ccc([C@@H](O)CO)cc3)ccc2c1=O)(C(=O)NO)S(C)(=O)=O [Example 18, (R)-4-(7-((4((R)-1,2-dihydroxyethyl)phenyl)ethynyl)-4-oxoquinazolin-3(4H)-yl)-N-hydroxy-2-methyl-2-(methylsulfonyl)butanamide] | 0.5 µg/mL (≈ 1 µM) | 2 µg/mL (≈ 4 µM) | 4 µg/mL (≈ 8.01 µM) |  |  | 
C[C@@](CCn1cnc2c(F)c(C#CC#C[C@H]3C[C@@H]3CO)ccc2c1=O)(C(=O)NO)S(C)(=O)=O [Example 23, (R)-4-(8-fluoro-7-(((1S,2S)-2-(hydroxymethyl)cyclopropyl)buta-1,3-diyn-1-yl)-4-oxoquinazolin-3(4H)-yl)-N-hydroxy-2-methyl-2-(methylsulfonyl)butanamide] | 0.5 µg/mL (≈ 1.05 µM) | 0.5 µg/mL (≈ 1.05 µM) | 4 µg/mL (≈ 8.41 µM) |  |  | 
CC(CCn1cnc2cc(-c3ccc(CO)cc3)ccc2c1=O)(C(=O)NO)S(C)(=O)=O (racemic) [RE7, (RS)-N-hydroxy-4-(7-(4-(hydroxymethyl)phenyl)-4-oxoquinazolin-3(4H)-yl)-2-methyl-2-(methylsulfonyl)butanamide] | 2 µg/mL (≈ 4.49 µM) | 8 µg/mL (≈ 18 µM) | 16 µg/mL (≈ 35.9 µM) |  |  | 
C[C@@](CCn1cnc2cc(C#CC#C[C@H]3C[C@@H]3CO)c(F)cc2c1=O)(C(=O)NO)S(C)(=O)=O [Example 9, (R)-4-(6-fluoro-7-(((1S,2S)-2-(hydroxymethyl)cyclopropyl)buta-1,3-diyn-1-yl)-4-oxoquinazolin-3(4H)-yl)-N-hydroxy-2-methyl-2-(methylsulfonyl)butanamide] | 0.125 µg/mL (≈ 0.263 µM) | 0.25 µg/mL (≈ 0.526 µM) | 1 µg/mL (≈ 2.1 µM) |  |  | 
COc1cccc(-c2ccc3c(=O)n(CCC(C)(C(=O)NO)S(C)(=O)=O)cnc3c2)c1F (racemic) [RE4, (RS)-4-(7-(2-fluoro-3-methoxyphenyl)-4-oxoquinazolin-3(4H)-yl)-N-hydroxy-2-methyl-2-(methylsulfonyl)butanamide] | 0.125 µg/mL (≈ 0.27 µM) | ≤ 0.063 µg/mL | 8 µg/mL (≈ 17.3 µM) |  |  | 
C[C@@](CCn1cnc2cc(C#Cc3ccc(C4(CO)CC4)cc3)ccc2c1=O)(C(=O)NO)S(C)(=O)=O [Example 16, (R)-N-hydroxy-4-(7-((4-(1-(hydroxymethyl)cyclopropyl)phenyl)ethynyl)-4-oxoquinazolin-3(4H)-yl)-2-methyl-2-(methylsulfonyl)butanamide] | 0.125 µg/mL (≈ 0.245 µM) | 0.25 µg/mL (≈ 0.491 µM) | 4 µg/mL (≈ 7.85 µM) |  |  | 
C[C@@](CCn1cnc2cc(C#CC#C[C@@H]3C[C@@H](O)[C@@H](O)C3)ccc2c1=O)(C(=O)NO)S(C)(=O)=O [Example 15, (R)-4-(7-(((1s,3R,4S)-3,4-dihydroxycyclopentyl)buta-1,3-diyn-1-yl)-4-oxoquinazolin-3(4H)-yl)-N-hydroxy-2-methyl-2-(methylsulfonyl)butanamide] |  |  |  | 1 µg/mL | 1 µg/mL | 2 µg/mL

Second part, led by results:

MIC (E. coli ATCC25922) | MIC (K. pneumoniae A-651) | MIC (P. aeruginosa ATCC27853) | SMILES | MIC for E. coli ATCC25922 (E. coli ATCC25922) | MIC for K. Pneumoniae A-651 (K. pneumoniae A-651) | MIC for P. aeruginosa ATCC27853 (P. aeruginosa ATCC27853)
0.25 µg/mL | 0.5 µg/mL | 1 µg/mL | C[C@@](CCn1cnc2cc(C#CC#CC3(N)CC3)ccc2c1=O)(C(=O)NO)S(C)(=O)=O.O=CO [Example 25, (R)-4-(7-((1-aminocyclopropyl)buta-1,3-diyn-1-yl)-4-oxoquinazolin-3(4H)-yl)-N-hydroxy-2-methyl-2-(methylsulfonyl)butanamide formate] |  |  | 
0.25 µg/mL (≈ 0.546 µM) | 1 µg/mL (≈ 2.19 µM) | 2 µg/mL (≈ 4.37 µM) | C[C@@](CCn1cnc2cc(C#CC#CC3(CO)CC3)ccc2c1=O)(C(=O)NO)S(C)(=O)=O [Example 6, (R)-N-hydroxy-4-(7-((1-(hydroxymethyl)cyclopropyl)buta-1,3-diyn-1-yl)-4-oxoquinazolin-3(4H)-yl)-2-methyl-2-(methylsulfonyl)butanamide] |  |  | 
0.25 µg/mL (≈ 0.511 µM) | 1 µg/mL (≈ 2.04 µM) | 2 µg/mL (≈ 4.09 µM) | C[C@@](CCn1cnc2cc(C#CC#CC3(CO)CCC3)c(F)cc2c1=O)(C(=O)NO)S(C)(=O)=O [Example 34, (R)-4-(6-fluoro-7-((1-(hydroxymethyl)cyclobutyl)buta-1,3-diyn-1-yl)-4-oxoquinazolin-3(4H)-yl)-N-hydroxy-2-methyl-2-(methylsulfonyl)butanamide] |  |  | 
0.125 µg/mL (≈ 0.259 µM) | 0.25 µg/mL (≈ 0.517 µM) | 0.5 µg/mL (≈ 1.03 µM) | C[C@@](CCn1cnc2cc(C#CC#CC34CC(CO)(C3)C4)ccc2c1=O)(C(=O)NO)S(C)(=O)=O [Example 13, (R)-N-hydroxy-4-(7-((3-(hydroxymethyl)bicyclo[1.1.1]pentan-1-yl)buta-1,3-diyn-1-yl)-4-oxoquinazolin-3(4H)-yl)-2-methyl-2-(methylsulfonyl)butanamide] |  |  | 
0.125 µg/mL (≈ 0.265 µM) | 0.5 µg/mL (≈ 1.06 µM) | 1 µg/mL (≈ 2.12 µM) | C[C@@]1(C#CC#Cc2ccc3c(=O)n(CC[C@](C)(C(=O)NO)S(C)(=O)=O)cnc3c2)C[C@H]1CO [Example 20, (R)-N-hydroxy-4-(7-(((1R,2R)-2-(hydroxymethyl)-1-methylcyclopropyl)buta-1,3-diyn-1-yl)-4-oxoquinazolin-3(4H)-yl)-2-methyl-2-(methylsulfonyl)butanamide] |  |  | 
0.25 µg/mL (≈ 0.526 µM) | 0.5 µg/mL (≈ 1.05 µM) | 1 µg/mL (≈ 2.1 µM) | C[C@@](CCn1cnc2cc(C#CC#C[C@@]3(F)C[C@@H]3CO)ccc2c1=O)(C(=O)NO)S(C)(=O)=O (relative stereo) [Example 30, (R)-4-(7-(((1R*,2R*)-1-fluoro-2-(hydroxymethyl)cyclopropyl)buta-1,3-diyn-1-yl)-4-oxoquinazolin-3(4H)-yl)-N-hydroxy-2-methyl-2-(methylsulfonyl)butanamide] |  |  | 
